Activity calls are given as the source filed them. The rule behind the calls is not given here. Peptide text beside a SMILES is read from it.
Legend:
[1] = Stability in 25% fetal calf serum assessed as parent compound remaining at 80 uM at 37 degC after 36 hrs by RP-HPLC-UV based detection assay; format: ADME, Bos taurus; details: cattle, read-out: Stability
Urotensin-2 receptor [2] = molecular target: T1, Urotensin-2 receptor (Rattus norvegicus, UniProt P49684); assay: (§1) Agonist activity at UT receptor in rat aorta assessed as contraction; format: tissue-based
T1 sequence (P49684 whole entry): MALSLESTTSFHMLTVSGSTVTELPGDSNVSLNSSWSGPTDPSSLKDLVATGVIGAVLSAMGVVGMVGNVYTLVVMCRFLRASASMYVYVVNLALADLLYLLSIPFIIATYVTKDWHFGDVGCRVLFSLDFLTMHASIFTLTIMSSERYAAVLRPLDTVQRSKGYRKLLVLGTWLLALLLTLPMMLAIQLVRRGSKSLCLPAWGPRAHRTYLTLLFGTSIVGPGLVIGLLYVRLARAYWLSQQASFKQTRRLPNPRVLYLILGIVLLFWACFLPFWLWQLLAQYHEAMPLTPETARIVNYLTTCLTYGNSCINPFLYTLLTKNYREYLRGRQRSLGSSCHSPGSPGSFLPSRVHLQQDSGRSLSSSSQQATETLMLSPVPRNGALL

[3] = Stability in 25% fetal calf serum assessed as parent compound remaining at 80 uM at 37 degC after 16 hrs by RP-HPLC-UV based detection assay; format: ADME, Bos taurus; details: cattle, read-out: Stability
[4] = molecular target: T2, Urotensin-2 receptor (Rattus norvegicus) (UniProt P49684); assay: Agonist activity at UT receptor in rat aorta assessed as contraction relative to urotensin-2; format: tissue-based
T2 sequence (whole entry): T1 sequence (P49684 whole entry)

Urotensin-2 receptor [5] = molecular target: T3, Urotensin-2 receptor (Homo sapiens, UniProt Q9UKP6); assay: Displacement of [125I]urotensin-2 from human recombinant UT receptor expressed in CHO-K1 cells by scintillation counting method; format: cell-based
T3 sequence (Q9UKP6 whole entry): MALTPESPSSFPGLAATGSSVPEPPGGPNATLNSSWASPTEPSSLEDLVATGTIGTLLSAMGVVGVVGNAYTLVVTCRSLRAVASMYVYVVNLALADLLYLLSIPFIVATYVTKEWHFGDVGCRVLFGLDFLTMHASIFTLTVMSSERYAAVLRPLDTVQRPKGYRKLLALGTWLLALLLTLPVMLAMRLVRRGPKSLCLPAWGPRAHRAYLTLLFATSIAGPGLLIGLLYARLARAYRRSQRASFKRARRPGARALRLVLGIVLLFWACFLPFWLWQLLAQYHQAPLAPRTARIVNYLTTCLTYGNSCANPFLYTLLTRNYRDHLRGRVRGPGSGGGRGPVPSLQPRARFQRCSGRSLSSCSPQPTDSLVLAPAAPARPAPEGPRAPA

[6] = molecular target: T2, Urotensin-2 receptor (Rattus norvegicus); assay: as §1; format: tissue-based
[7] = molecular target: T2, Urotensin-2 receptor (Rattus norvegicus); assay: Competitive antagonist activity at UT receptor in rat aorta assessed as effect on urotensin-2-induced contraction; format: tissue-based
[8] = molecular target: T4, Urotensin-2 receptor (Homo sapiens) (UniProt Q9UKP6); assay: Partial agonist activity at human recombinant UT receptor expressed in CHO-K1 cells assessed as stimulation of intracellular calcium mobilization at 1 uM by FLIPR assay relative to urotensin-2; format: functional, cell-based
T4 sequence (whole entry): T3 sequence (Q9UKP6 whole entry)

[9] = molecular target: T4, Urotensin-2 receptor (Homo sapiens); assay: Partial agonist activity at human recombinant UT receptor expressed in CHO-K1 cells assessed as stimulation of intracellular calcium mobilization by FLIPR assay; format: functional, cell-based
[10] = molecular target: T4, Urotensin-2 receptor (Homo sapiens); assay: Partial agonist activity at human recombinant UT receptor expressed in CHO-K1 cells assessed as stimulation of intracellular calcium mobilization at 10 uM by FLIPR assay relative to urotensin-2; format: functional, cell-based

In the case of `CC(C)[C@H](NC(=O)[C@@H]1CSSC(C)(C)[C@H](NC(=O)[C@@H](N)CC(=O)O)C(=O)N[C@@H](Cc2ccccc2)C(=O)N[C@H](Cc2c[nH]c3ccccc23)C(=O)N[C@@H](CCCN)C(=O)N[C@@H](Cc2ccc(O)cc2)C(=O)N1)C(=O)O` [URANTIDE] (HELM PEPTIDE1{D.[Pen].F.[dW].[Orn].Y.C.V}$PEPTIDE1,PEPTIDE1,2:R3-7:R3$$$V2.0), the remaining at 36 h, 80 µM [1] is reported as > 50%.
Work on `CC(C)[C@H](NC(=O)[C@@H]1CSSC(C)(C)[C@H](NC(=O)[C@@H](N)CC(=O)O)C(=O)N[C@@H](Cc2ccccc2)C(=O)N[C@@H](Cc2c[nH]c3ccccc23)C(=O)N[C@@H](CCCCN)C(=O)N[C@@H](Cc2ccc(O)cc2)C(=O)N1)C(=O)O` (HELM PEPTIDE1{D.[Pen].F.W.K.Y.C.V}$PEPTIDE1,PEPTIDE1,2:R3-7:R3$$$V2.0) yielded an EC50 (Urotensin-2 receptor [2]) of 0.398 nM, a remaining at 36 h, 80 µM [1] of 45% and a remaining at 16 h, 80 µM [3] of 65%. The Emax [4] was 95% and the Ki (Urotensin-2 receptor [5]) was 0.2 nM.
In the case of `CC(C)[C@H](NC(=O)[C@@H]1CSSC(C)(C)[C@@H](NC(=O)[C@@H](N)CC(=O)O)C(=O)N[C@@H](Cc2ccccc2)C(=O)N[C@H](Cc2c[nH]c3ccccc23)C(=O)N[C@@H](CCCN)C(=O)N[C@@H](Cc2ccc(O)cc2)C(=O)N1)C(=O)O` (HELM PEPTIDE1{D.[CC(C)(S[*:3])[C@@H](N[*:1])C(=O)[*:2]].F.[dW].[Orn].Y.C.V}$PEPTIDE1,PEPTIDE1,2:R3-7:R3$$$V2.0), the pEC50 [6] is reported as “inactive”, the pKb [7] is reported as 8.32 and the Efficacy [8] is reported as 43.3%. For the same compound, the Emax [4] was 0%, the Activity [9] was “Active” and the Efficacy [10] was 46.2%.
For `CC(C)[C@H](NC(=O)[C@@H]1CSSC[C@H](NC(=O)[C@@H](N)CC(=O)O)C(=O)N[C@@H](Cc2ccccc2)C(=O)N[C@@H](Cc2c[nH]c3ccccc23)C(=O)N[C@@H](CCCCN)C(=O)N[C@@H](Cc2ccc(O)cc2)C(=O)N1)C(=O)O` (HELM PEPTIDE1{D.C.F.W.K.Y.C.V}$PEPTIDE1,PEPTIDE1,2:R3-7:R3$$$V2.0), the EC50 (Urotensin-2 receptor [2]) was 3.63 nM, the remaining at 16 h, 80 µM [3] was < 50% and the Emax [4] was 100%. For the same compound, the Ki (Urotensin-2 receptor [5]) was 0.251 nM.
In the case of `CC(C)[C@H](NC(=O)[C@@H]1CSSC(C)(C)[C@H](NC(=O)[C@@H](N)CC(=O)O)C(=O)N[C@@H](Cc2ccccc2)C(=O)N[C@@H](Cc2c[nH]c3ccccc23)C(=O)N[C@@H](CCCCN)C(=O)N[C@@H](Cc2ccc(Cl)c(Cl)c2)C(=O)N1)C(=O)O` (HELM PEPTIDE1{D.[Pen].F.W.K.[O=C([C@H](Cc1ccc(Cl)c(Cl)c1)N[*:1])[*:2]].C.V}$PEPTIDE1,PEPTIDE1,2:R3-7:R3$$$V2.0), the EC50 (Urotensin-2 receptor [2]) is reported as 0.0126 nM, the remaining at 36 h, 80 µM [1] is reported as > 50% and the remaining at 16 h, 80 µM [3] is reported as > 70%. The Emax [4] was 102% and the Ki (Urotensin-2 receptor [5]) was 0.776 nM.
`CC(C)[C@H](NC(=O)[C@@H]1CSSC(C)(C)[C@H](NC(=O)[C@@H](N)CC(=O)O)C(=O)N[C@@H](Cc2ccccc2)C(=O)N[C@@H](Cc2c[nH]c3ccccc23)C(=O)N[C@@H](CCCCN)C(=O)N[C@@H](Cc2ccc(Cl)cc2)C(=O)N1)C(=O)O` (HELM PEPTIDE1{D.[Pen].F.W.K.[O=C([C@H](Cc1ccc(Cl)cc1)N[*:1])[*:2]].C.V}$PEPTIDE1,PEPTIDE1,2:R3-7:R3$$$V2.0) gave an EC50 (Urotensin-2 receptor [2]) of 0.813 nM, an Emax [4] of 85% and a Ki (Urotensin-2 receptor [5]) of 1.23 nM.
For `CC(C)[C@H](NC(=O)[C@@H]1CSSC(C)(C)[C@H](NC(=O)[C@@H](N)CC(=O)O)C(=O)N[C@@H](Cc2ccccc2)C(=O)N[C@@H](Cc2c[nH]c3ccccc23)C(=O)N[C@@H](CCCCN)C(=O)N[C@@H](Cc2ccc(C#N)cc2)C(=O)N1)C(=O)O` (HELM PEPTIDE1{D.[Pen].F.W.K.[N#Cc1ccc(C[C@H](N[*:1])C(=O)[*:2])cc1].C.V}$PEPTIDE1,PEPTIDE1,2:R3-7:R3$$$V2.0), the EC50 (Urotensin-2 receptor [2]) was 1.07 nM, the Emax [4] was 79% and the Ki (Urotensin-2 receptor [5]) was 1.82 nM.
`CC(C)[C@H](NC(=O)[C@@H]1CSSC(C)(C)[C@H](NC(=O)[C@@H](N)CC(=O)O)C(=O)N[C@@H](Cc2ccccc2)C(=O)N[C@@H](Cc2c[nH]c3ccccc23)C(=O)N[C@@H](CCCCN)C(=O)N[C@@H](Cc2nc3ccccc3s2)C(=O)N1)C(=O)O` (HELM PEPTIDE1{D.[Pen].F.W.K.[O=C([C@H](Cc1nc2ccccc2s1)N[*:1])[*:2]].C.V}$PEPTIDE1,PEPTIDE1,2:R3-7:R3$$$V2.0) gave an EC50 (Urotensin-2 receptor [2]) of 0.0195 nM, an Emax [4] of 89% and a Ki (Urotensin-2 receptor [5]) of 1.74 nM.
For `CC(C)[C@H](NC(=O)[C@@H]1CSSC(C)(C)[C@H](NC(=O)[C@@H](N)CC(=O)O)C(=O)N[C@@H](Cc2ccccc2)C(=O)N[C@H](Cc2c[nH]c3ccccc23)C(=O)N[C@@H](CCCN)C(=O)N[C@@H](Cc2ccc([N+](=O)[O-])cc2)C(=O)N1)C(=O)O`, the pEC50 [6] was “inactive”, the pKb [7] was 8.12 and the Efficacy [8] was 56.5%. The Emax [4] was 0%, the Ki (Urotensin-2 receptor [5]) was 17 nM and the Activity [9] was “Active”. For the same compound, the Efficacy [10] was 61.2%.
In the case of `CC(C)[C@H](NC(=O)[C@@H]1CSSC(C)(C)[C@H](NC(=O)[C@@H](N)CC(=O)O)C(=O)N[C@@H](Cc2ccccc2)C(=O)N[C@H](Cc2c[nH]c3ccccc23)C(=O)N[C@@H](CCCN)C(=O)N[C@@H](Cc2ccc(C#N)cc2)C(=O)N1)C(=O)O`, the pEC50 [6] is reported as “inactive”, the remaining at 36 h, 80 µM [1] is reported as > 50% and the pKb [7] is reported as 8.15. For the same compound, the Efficacy [8] was 61.4%, the remaining at 16 h, 80 µM [3] was > 70% and the Emax [4] was 0%. For the same compound, the Ki (Urotensin-2 receptor [5]) was 12 nM, the Activity [9] was “Active” and the Efficacy [10] was 61.7%.

— ChEMBL document CHEMBL3352762 (J Med Chem, 2014)
